{"source": "paper PMC7523345", "about": "(Investigational new drugs, 2018)", "assay": "Phase I dose escalation study: safety, tolerability, DLT and MTD", "format": "in vivo", "note": "Entries after “also recorded” stand apart in the source; their conditions may differ.", "data": [{"smiles": "Cc1cccc2c1NC(=O)[C@@H](NC(=O)[C@H](CCC(F)(F)F)[C@H](CCC(F)(F)F)C(N)=O)N=C2c1cccc(F)c1", "note": "[BMS-986115]", "values": [{"measurement": "Leucocytosis (drug related AE, Grade 3 and 4)", "setting": "Arm A QD 2.0 mg (N = 7)", "result": "0 n (%)"}, {"measurement": "Mouth ulceration (drug related AE, all grades)", "setting": "Arm A QD 2.0 mg (N = 7)", "result": "1 (14) n (%)"}, {"measurement": "Nausea (drug related AE, Grade 3 and 4)", "setting": "Arm A QD 2.0 mg (N = 7)", "result": "1 (14) n (%)"}, {"measurement": "Nausea (drug related AE, all grades)", "setting": "Arm A QD 2.0 mg (N = 7)", "result": "5 (71) n (%)"}, {"measurement": "Pruritus (drug related AE, Grade 3 and 4)", "setting": "Arm A QD 2.0 mg (N = 7)", "result": "1 (14) n (%)"}, {"measurement": "Pruritus (drug related AE, all grades)", "setting": "Arm A QD 2.0 mg (N = 7)", "result": "3 (43) n (%)"}, {"measurement": "Pulmonary embolism (drug related AE, Grade 3 and 4)", "setting": "Arm A QD 2.0 mg (N = 7)", "result": "0 n (%)"}, {"measurement": "Rash (drug related AE, all grades)", "setting": "Arm A QD 2.0 mg (N = 7)", "result": "1 (14) n (%)"}, {"measurement": "Rash maculopapular (drug related AE, all grades)", "setting": "Arm A QD 2.0 mg (N = 7)", "result": "2 (29) n (%)"}, {"measurement": "Sinusitis (drug related AE, all grades)", "setting": "Arm A QD 2.0 mg (N = 7)", "result": "0 n (%)"}, {"measurement": "Urticaria (drug related AE, Grade 3 and 4)", "setting": "Arm A QD 2.0 mg (N = 7)", "result": "1 (14) n (%)"}, {"measurement": "Vision blurred (drug related AE, all grades)", "setting": "Arm A QD 2.0 mg (N = 7)", "result": "0 n (%)"}, {"measurement": "Vomiting (drug related AE, Grade 3 and 4)", "setting": "Arm A QD 2.0 mg (N = 7)", "result": "1 (14) n (%)"}, {"measurement": "Vomiting (drug related AE, all grades)", "setting": "Arm A QD 2.0 mg (N = 7)", "result": "5 (71) n (%)"}, {"measurement": "Weight decreased (drug related AE, all grades)", "setting": "Arm A QD 2.0 mg (N = 7)", "result": "0 n (%)"}, {"measurement": "No. of patients with DLTs", "setting": "Arm A QD 2.0 mg, 5 DLT evaluable patients", "result": 3}, {"measurement": "Abdominal distension (drug related AE, all grades)", "setting": "Arm A QD Total (N = 24)", "result": "1 (4) n (%)"}, {"measurement": "Abdominal pain (drug related AE, Grade 3 and 4)", "setting": "Arm A QD Total (N = 24)", "result": "1 (4) n (%)"}, {"measurement": "Abdominal pain (drug related AE, all grades)", "setting": "Arm A QD Total (N = 24)", "result": "2 (8) n (%)"}, {"measurement": "Blood creatinine increased (drug related AE, all grades)", "setting": "Arm A QD Total (N = 24)", "result": "1 (4) n (%)"}, {"measurement": "Colitis (drug related AE, Grade 3 and 4)", "setting": "Arm A QD Total (N = 24)", "result": "1 (4) n (%)"}, {"measurement": "Cough (drug related AE, Grade 3 and 4)", "setting": "Arm A QD Total (N = 24)", "result": "1 (4) n (%)"}, {"measurement": "Cough (drug related AE, all grades)", "setting": "Arm A QD Total (N = 24)", "result": "3 (13) n (%)"}, {"measurement": "Decreased Appetite (drug related AE, Grade 3 and 4)", "setting": "Arm A QD Total (N = 24)", "result": "0 n (%)"}, {"measurement": "Decreased Appetite (drug related AE, all grades)", "setting": "Arm A QD Total (N = 24)", "result": "8 (33) n (%)"}, {"measurement": "Dehydration (drug related AE, Grade 3 and 4)", "setting": "Arm A QD Total (N = 24)", "result": "0 n (%)"}, {"measurement": "Dehydration (drug related AE, all grades)", "setting": "Arm A QD Total (N = 24)", "result": "3 (13) n (%)"}, {"measurement": "Dermatitis acneiform (drug related AE, all grades)", "setting": "Arm A QD Total (N = 24)", "result": "4 (17) n (%)"}, {"measurement": "Diarrhoea (drug related AE, Grade 3 and 4)", "setting": "Arm A QD Total (N = 24)", "result": "4 (17) n (%)"}, {"measurement": "Diarrhoea (drug related AE, all grades)", "setting": "Arm A QD Total (N = 24)", "result": "18 (75) n (%)"}, {"measurement": "Dry mouth (drug related AE, all grades)", "setting": "Arm A QD Total (N = 24)", "result": "2 (8) n (%)"}, {"measurement": "Dry skin (drug related AE, all grades)", "setting": "Arm A QD Total (N = 24)", "result": "3 (13) n (%)"}, {"measurement": "Dysgeusia (drug related AE, all grades)", "setting": "Arm A QD Total (N = 24)", "result": "3 (13) n (%)"}, {"measurement": "Dyspepsia (drug related AE, all grades)", "setting": "Arm A QD Total (N = 24)", "result": "2 (8) n (%)"}, {"measurement": "Dysphonia (drug related AE, all grades)", "setting": "Arm A QD Total (N = 24)", "result": "4 (17) n (%)"}, {"measurement": "Fatigue (drug related AE, Grade 3 and 4)", "setting": "Arm A QD Total (N = 24)", "result": "1 (4) n (%)"}, {"measurement": "Fatigue (drug related AE, all grades)", "setting": "Arm A QD Total (N = 24)", "result": "10 (42) n (%)"}, {"measurement": "Flatulence (drug related AE, all grades)", "setting": "Arm A QD Total (N = 24)", "result": "0 n (%)"}, {"measurement": "Hypocalcaemia (drug related AE, Grade 3 and 4)", "setting": "Arm A QD Total (N = 24)", "result": "0 n (%)"}, {"measurement": "Hypocalcaemia (drug related AE, all grades)", "setting": "Arm A QD Total (N = 24)", "result": "1 (4) n (%)"}, {"measurement": "Hypokalaemia (drug related AE, Grade 3 and 4)", "setting": "Arm A QD Total (N = 24)", "result": "4 (17) n (%)"}, {"measurement": "Hypokalaemia (drug related AE, all grades)", "setting": "Arm A QD Total (N = 24)", "result": "7 (29) n (%)"}, {"measurement": "Hyponatraemia (drug related AE, Grade 3 and 4)", "setting": "Arm A QD Total (N = 24)", "result": "1 (4) n (%)"}, {"measurement": "Hyponatraemia (drug related AE, all grades)", "setting": "Arm A QD Total (N = 24)", "result": "1 (4) n (%)"}, {"measurement": "Hypophosphataemia (drug related AE, Grade 3 and 4)", "setting": "Arm A QD Total (N = 24)", "result": "8 (33) n (%)"}, {"measurement": "Hypophosphataemia (drug related AE, all grades)", "setting": "Arm A QD Total (N = 24)", "result": "16 (67) n (%)"}, {"measurement": "Ileus (drug related AE, Grade 3 and 4)", "setting": "Arm A QD Total (N = 24)", "result": "1 (4) n (%)"}, {"measurement": "Increased upper airway secretion (drug related AE, all grades)", "setting": "Arm A QD Total (N = 24)", "result": "0 n (%)"}, {"measurement": "Laryngeal pain (drug related AE, all grades)", "setting": "Arm A QD Total (N = 24)", "result": "2 (8) n (%)"}, {"measurement": "Leucocytosis (drug related AE, Grade 3 and 4)", "setting": "Arm A QD Total (N = 24)", "result": "0 n (%)"}, {"measurement": "Mouth ulceration (drug related AE, all grades)", "setting": "Arm A QD Total (N = 24)", "result": "2 (8) n (%)"}, {"measurement": "Nausea (drug related AE, Grade 3 and 4)", "setting": "Arm A QD Total (N = 24)", "result": "3 (13) n (%)"}, {"measurement": "Nausea (drug related AE, all grades)", "setting": "Arm A QD Total (N = 24)", "result": "15 (63) n (%)"}, {"measurement": "Pruritus (drug related AE, Grade 3 and 4)", "setting": "Arm A QD Total (N = 24)", "result": "1 (4) n (%)"}, {"measurement": "Pruritus (drug related AE, all grades)", "setting": "Arm A QD Total (N = 24)", "result": "6 (25) n (%)"}, {"measurement": "Pulmonary embolism (drug related AE, Grade 3 and 4)", "setting": "Arm A QD Total (N = 24)", "result": "1 (4) n (%)"}, {"measurement": "Rash (drug related AE, all grades)", "setting": "Arm A QD Total (N = 24)", "result": "8 (33) n (%)"}, {"measurement": "Rash maculopapular (drug related AE, all grades)", "setting": "Arm A QD Total (N = 24)", "result": "2 (8) n (%)"}, {"measurement": "Sinusitis (drug related AE, all grades)", "setting": "Arm A QD Total (N = 24)", "result": "2 (8) n (%)"}, {"measurement": "Urticaria (drug related AE, Grade 3 and 4)", "setting": "Arm A QD Total (N = 24)", "result": "1 (4) n (%)"}, {"measurement": "Vision blurred (drug related AE, all grades)", "setting": "Arm A QD Total (N = 24)", "result": "1 (4) n (%)"}, {"measurement": "Vomiting (drug related AE, Grade 3 and 4)", "setting": "Arm A QD Total (N = 24)", "result": "1 (4) n (%)"}, {"measurement": "Vomiting (drug related AE, all grades)", "setting": "Arm A QD Total (N = 24)", "result": "12 (50) n (%)"}, {"measurement": "Weight decreased (drug related AE, all grades)", "setting": "Arm A QD Total (N = 24)", "result": "2 (8) n (%)"}, {"measurement": "Patients with dose limiting toxicities", "setting": "Arm A QD, all dose levels", "result": "Four"}, {"measurement": "Treatment-related SAEs, description", "setting": "Arm A QD, one line per subject", "result": "Gr 3 nausea with Gr 3 fatigue and Gr 4 hypophosphataemia; also recorded: Gr 3 ileus"}, {"measurement": "Maximum Tolerated Dose (MTD)", "setting": "Arm A, once daily (QD) oral dosing", "result": 1.5, "unit": "mg"}, {"measurement": "Subjects with treatment-related SAEs", "setting": "Arm B BIW", "result": 2, "unit": "subjects"}, {"measurement": "Abdominal distension (drug related AE, all grades)", "setting": "Arm B BIW 2 mg (N = 2)", "result": "0 n (%)"}, {"measurement": "Abdominal pain (drug related AE, Grade 3 and 4)", "setting": "Arm B BIW 2 mg (N = 2)", "result": "0 n (%)"}]}]}
